Laboratory results as given in patent US4267192A, “Method for treating inflammation” (priority 1980, dated 1981).

What was measured:
[1] = system: carrageenan-induced edema in the hind paw of the rat; experiment: rat carrageenan edema test (hind paw); format: in vivo, rat (male Sprague-Dawley); conditions: for Change in paw volume (ml) from 0-3 hr: mean ± S.E.; for % Change in paw edema: vs control
Experimental: (§1) Vehicle alone is administered as a control. Sixty minutes after drug administration edema is induced by an injection of 0.1 ml. of a 1% carrageenan solution is saline into the subplantar tissue of the rat's right hind paw. Two minutes later, paw volume is measured volumetrically with a plethysmograph and again 3 hours later. The mean volume of swelling for the control group is calculated and compared to the test groups. Percent change in paw edema is calculated and analyzed statistically (unpaired, Student's t-test).

[2] = system: carrageenan-induced edema in the hind paw of normal and adrenalectomized rats; experiment: carrageenan paw edema in normal and adrenalectomized rats; format: in vivo, rat; conditions: oral 300 mg/kg
Experimental: as §1
Normal rats received the same doses as adrenalectomized rats.

[3] = system: polyarthritis induced by Mycobacterium butyricum or tuberculosis in rats; conditions: rat; cited from earlier work
[4] = system: rat stomach (gastric ulcers, gastric swelling); conditions: especially in long-term therapy; in words; cited from earlier work
prostaglandin synthetase = target: T1, prostaglandin synthetase (Ovis aries, UniProt P05979); conditions: in words; cited from earlier work
T1 sequence (P05979 25-600): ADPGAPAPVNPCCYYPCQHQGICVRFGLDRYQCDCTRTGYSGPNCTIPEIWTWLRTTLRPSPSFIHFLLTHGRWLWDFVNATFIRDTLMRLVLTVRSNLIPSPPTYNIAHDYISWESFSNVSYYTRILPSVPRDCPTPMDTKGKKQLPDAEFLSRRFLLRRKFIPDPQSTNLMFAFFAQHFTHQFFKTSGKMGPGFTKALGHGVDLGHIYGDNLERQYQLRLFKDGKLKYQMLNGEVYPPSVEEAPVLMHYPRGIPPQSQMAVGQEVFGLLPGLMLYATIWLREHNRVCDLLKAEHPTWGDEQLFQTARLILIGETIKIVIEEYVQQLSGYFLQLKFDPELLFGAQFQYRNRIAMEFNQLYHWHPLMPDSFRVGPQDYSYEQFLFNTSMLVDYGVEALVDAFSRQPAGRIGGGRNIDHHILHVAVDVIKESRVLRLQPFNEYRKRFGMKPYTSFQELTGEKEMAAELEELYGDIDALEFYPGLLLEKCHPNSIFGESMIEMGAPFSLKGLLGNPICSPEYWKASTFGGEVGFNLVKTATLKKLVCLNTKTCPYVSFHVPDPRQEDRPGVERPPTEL

[5] = oral 180 mg/kg, Table 1 group e
[6] = oral 270 mg/kg, Table 1 group d
[7] = oral 120 mg/kg, Table 1 group f
[8] = oral 240 mg/kg, Table 1 group f
[9] = oral 480 mg/kg, Table 1 group f

With CCOC(=O)C=C1c2ccccc2C=Cc2ccccc21 [EDCHA, ethyl(5H-dibenzo[a,d]cyclohepten-5-ylidene)acetate] the “oral doses that inhibit carrageenan paw edema” value ([1]; oral) was 10 to 180 mg/kg, the “Change in paw volume (ml) from 0-3 hr” value ([1]; oral 20 mg/kg, Table 1 group e) was 1.11 ± 0.08 mL and the “% Change in paw edema” value ([1]; oral 20 mg/kg, Table 1 group e) was -4%. For the same compound, the “Change in paw volume (ml) from 0-3 hr” value ([1]; oral 60 mg/kg, Table 1 group e) was 0.98 ± 0.06 mL, the “% Change in paw edema” value ([1]; oral 60 mg/kg, Table 1 group e) was -15% and the “Change in paw volume (ml) from 0-3 hr” value [1, 5] was 0.87 ± 0.04 mL. The “% Change in paw edema” value [1, 5] was -25%.

In the case of CC(=O)Oc1ccccc1C(=O)O [Aspirin, aspirin, reference compound], the “estimated ED50 (carrageenan paw edema)” value ([1]; oral) is reported as ~110 mg/kg, the “Change in paw volume (ml) from 0-3 hr” value ([1]; oral 30 mg/kg, Table 1 group d) is reported as 0.63 ± 0.02 mL and the “% Change in paw edema” value ([1]; oral 30 mg/kg, Table 1 group d) is reported as -28%. For the same compound, the “Change in paw volume (ml) from 0-3 hr” value ([1]; oral 90 mg/kg, Table 1 group d) was 0.54 ± 0.04 mL, the “% Change in paw edema” value ([1]; oral 90 mg/kg, Table 1 group d) was -39% and the “Change in paw volume (ml) from 0-3 hr” value [1, 6] was 0.29 ± 0.10 mL. The “% Change in paw edema” value [1, 6] was -67%, the “% Inhibition” value ([2]; Adrenalectomized Rats) was 34% and the “Edema (ml) ± S.E.” value ([2]; Adrenalectomized Rats) was 0.64 ± .04 mL. For the same compound, the animals died ([2]; Adrenalectomized Rats, footnote a) was 1/6, the “% Inhibition” value ([2]; Normal Rats) was 44% and the “Mean Edema (ml) ± S.E.” value ([2]; Normal Rats) was 0.52 ± .07 mL. For the same compound, the “ED50 (adjuvant arthritis test), has been assessed” value [3] was “approximately 140 mg/kg”, the gastric ulcerogenicity [4] was “proven gastric ulcerogens” and the “appreciable effects on prostaglandin synthetase activity” value (prostaglandin synthetase) was “appreciable effects on prostaglandin synthetase activity”.

With COC(=O)C=C1c2ccccc2C=Cc2ccccc21 [MDCHA, Methyl(5H-dibenzo[a,d]cyclohepten-5-ylidene)acetate] the “Change in paw volume (ml) from 0-3 hr” value ([1]; oral 60 mg/kg, Table 1 group f) was 0.68 ± 0.08 mL, the “% Change in paw edema” value ([1]; oral 60 mg/kg, Table 1 group f) was -8% and the “Change in paw volume (ml) from 0-3 hr” value [1, 7] was 0.59 ± 0.08 mL. The “% Change in paw edema” value [1, 7] was -20%, the “Change in paw volume (ml) from 0-3 hr” value [1, 8] was 0.68 ± 0.10 mL and the “% Change in paw edema” value [1, 8] was -8%. For the same compound, the “Change in paw volume (ml) from 0-3 hr” value [1, 9] was 0.59 ± 0.07 mL and the “% Change in paw edema” value [1, 9] was -20%.
